The target in experiment [1] is 5-HT1A receptor (Homo sapiens (Human), UniProt P08908). Nature of the experiment: Affinity for human 5-HT1A receptor ([3H]8-OH-DPAT binding, HEK-293 cell homogenates).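 Also: Filter-retained radioactivity counted by scintillation, non-specific binding defined with 10 µM 8-OH-DPAT, Ki derived from percent inhibition of specific radioligand binding versus control.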
Procedure: The non-specific binding value was determined by incubating the same mixture in the presence of 10 μM 8-OH-DPAT, which was used as the standard reference compound and tested in each experiment at several concentrations to obtain a competition curve.
Following the incubation, the samples were filtered rapidly under vacuum through glass fiber filter (GF/B, Packard) presoaked with 0.3% PEI and rinsed several times with ice-cold 50 mM Tris-HCl using a 96-sample cell harvester (Unifilter, Packard). The filters were dried and the retained radioactivity was measured in a scintillation counter (Topcount, Packard) using a scintillation cocktail (Microscint 0, Packard). The experimental results were expressed as a percent inhibition of the control radioligand specific binding, and Ki was the inhibition constant.
Experiment [2] concerns the target serotonin transporter (Rattus norvegicus (Rat), UniProt P31652). Nature of the experiment: Inhibitory effect on [3H]5-HT uptake in rat synaptosome. The format is biochemical. The following applies: rat brain synaptosomes, 37° C., 15 minutes, 0.1 μCi [3H]5-HT. How it is done:
The synaptosomes (150 μg) prepared from the rat brain were incubated at 37° C. for 15 minutes with 0.1 μCi [^3H]5-HT in the absence or presence of the test compound or the reference compound in a buffer solution containing 106.2 mM NaCl, 4.5 mM KCl, 2.25 mM MgSO4, 1.08 mM NaH2PO4, 22.5 mM NaHCO3, 9.9 mM glucose, 9 μM EGTA and 45 μM ascorbic acid (pH 7.4).
Inhibition of serotonin transporter in rat synaptosome was measured by the concentrations of [^3H]5-HT.

[3] abbreviates: read-out: Ki, binding affinity for 5-HT1A receptor, 0.3 nM [3H]8-OH-DPAT, human HEK-293 cell homogenates, 22° C., 60 minutes.

The text below walks through data of patent US9598401B2, “Substituted heteroaryl compounds and methods of use thereof” (Sunshine Lake Pharma Co., Ltd., priority 2013, dated 2017).

Read-outs that look alike come from different tables or passages of the source.

Chain of 5-HT1A receptor (P08908 whole entry): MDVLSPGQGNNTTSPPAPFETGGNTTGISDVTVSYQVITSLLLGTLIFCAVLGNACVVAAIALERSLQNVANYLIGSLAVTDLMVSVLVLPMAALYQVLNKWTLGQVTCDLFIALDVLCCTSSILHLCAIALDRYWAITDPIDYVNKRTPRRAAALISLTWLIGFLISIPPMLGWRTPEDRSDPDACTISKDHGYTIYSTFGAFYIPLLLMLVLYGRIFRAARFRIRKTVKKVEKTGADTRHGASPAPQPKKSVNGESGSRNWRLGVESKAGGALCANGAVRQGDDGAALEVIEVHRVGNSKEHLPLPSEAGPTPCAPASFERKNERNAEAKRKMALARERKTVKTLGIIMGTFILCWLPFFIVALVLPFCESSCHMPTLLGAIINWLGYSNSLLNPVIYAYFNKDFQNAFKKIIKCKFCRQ
Chain of serotonin transporter (P31652 whole entry): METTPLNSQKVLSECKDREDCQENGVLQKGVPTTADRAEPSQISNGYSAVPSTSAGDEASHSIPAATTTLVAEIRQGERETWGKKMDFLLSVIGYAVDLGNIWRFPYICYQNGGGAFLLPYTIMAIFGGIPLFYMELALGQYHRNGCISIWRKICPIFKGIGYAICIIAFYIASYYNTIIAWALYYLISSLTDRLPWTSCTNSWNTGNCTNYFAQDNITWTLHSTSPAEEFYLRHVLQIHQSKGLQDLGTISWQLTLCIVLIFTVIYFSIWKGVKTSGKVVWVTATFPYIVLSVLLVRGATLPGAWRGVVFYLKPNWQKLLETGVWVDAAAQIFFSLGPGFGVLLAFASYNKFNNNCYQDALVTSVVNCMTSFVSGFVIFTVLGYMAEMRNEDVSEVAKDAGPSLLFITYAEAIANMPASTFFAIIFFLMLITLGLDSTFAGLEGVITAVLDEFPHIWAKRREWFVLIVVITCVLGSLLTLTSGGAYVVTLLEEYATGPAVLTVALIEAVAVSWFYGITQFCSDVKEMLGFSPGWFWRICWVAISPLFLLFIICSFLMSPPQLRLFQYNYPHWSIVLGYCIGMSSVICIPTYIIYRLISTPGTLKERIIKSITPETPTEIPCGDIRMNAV

As a reminder, the Ki is the equilibrium dissociation constant of an inhibitor or competing ligand from its target. Turning to `COc1cc(OC)nc(N2CCN(CCCCc3c[nH]c4ccccc34)CC2)n1` [Example 1, 3-(4-(4-(4,6-Dimethoxypyrimidin-2-yl)piperazin-1-yl)butyl)-1H-indole], in experiment [1] (setting [3]), the Ki was 3.3 nM.

`COc1ccc2[nH]cc(CCCCN3CCN(c4nc(OC)cc(OC)n4)CC3)c2c1` [Example 2, 3-(4-(4-(4,6-Dimethoxypyrimidin-2-yl)piperazin-1-yl)butyl)-5-methoxy-1H-indole]: in experiment [1] (setting [3]), the Ki amounted to 1.4 nM.

As to `COc1cc(OC)nc(N2CCN(CCCCc3c[nH]c4ccc(Cl)cc34)CC2)n1` [Example 3, 5-Chloro-3-(4-(4-(4,6-dimethoxypyrimidin-2-yl)piperazin-1-yl)butyl)-1H-indole], the Ki in experiment [1] (setting [3]) was 1.1 nM.

Broadly, the IC50 is the point on the concentration scale where inhibition reaches its midpoint. On to `COc1cc(OC)nc(N2CCN(CCCCc3c[nH]c4ccc(C#N)cc34)CC2)n1` [Example 5, 3-(4-(4-(4,6-Dimethoxypyrimidin-2-yl)piperazin-1-yl)butyl)-1H-indole-5-carbonitrile], for which the Ki in experiment [1] (setting [3]) was 2.3 nM. Also, in experiment [2], inhibition was half-maximal at 11 nM (IC50).

Consider `COc1cc(OC)nc(N2CCN(CCCc3c[nH]c4ccccc34)CC2)n1` [Example 6, 3-(3-(4-(4,6-Dimethoxypyrimidin-2-yl)piperazin-1-yl)propyl)-1H-indole], for which the Ki in experiment [1] (setting [3]) is 4.8 nM. Besides, in experiment [2], the IC50 came to 24 nM.

For the molecule `COc1ccc2[nH]cc(CCCN3CCN(c4nc(OC)cc(OC)n4)CC3)c2c1` [Example 7, 3-(3-(4-(4,6-Dimethoxypyrimidin-2-yl)piperazin-1-yl)propyl)-5-methoxy-1H-indole], in experiment [1] (setting [3]), the Ki worked out at 0.19 nM.

Regarding `COc1cc(OC)nc(N2CCN(CCCc3c[nH]c4ccc(Cl)cc34)CC2)n1` [Example 8, 5-Chloro-3-(3-(4-(4,6-dimethoxypyrimidin-2-yl)piperazin-1-yl)propyl)-1H-indole], in experiment [1] (setting [3]), the Ki worked out at 2 nM. In experiment [2], this molecule gave an IC50 of 81 nM.

Regarding `COc1cc(OC)nc(N2CCN(CCCc3c[nH]c4ccc(F)cc34)CC2)n1` [Example 9, 3-(3-(4-(4,6-Dimethoxypyrimidin-2-yl)piperazin-1-yl)propyl)-5-fluoro-1H-indole], the Ki in experiment [1] (setting [3]) stood at 3.4 nM. For the same molecule, in experiment [2], the IC50 was determined as 4.4 nM.

`Cc1cc(C)nc(N2CCN(CCCCc3c[nH]c4ccccc34)CC2)n1` [Example 11, 3-(4-(4-(4,6-Dimethylpyrimidin-2-yl)piperazin-1-yl)butyl)-1H-indole]: the Ki in experiment [1] (setting [3]) worked out at 1.1 nM. The same molecule returned an IC50 in experiment [2] of 82 nM.

As to `COc1ccc2[nH]cc(CCCCN3CCN(c4nc(C)cc(C)n4)CC3)c2c1` [Example 12, 3-(4-(4-(4,6-Dimethylpyrimidin-2-yl)piperazin-1-yl)butyl)-5-methoxy-1H-indole], in experiment [1] (setting [3]), the Ki stood at 1.1 nM.

Regarding `Cc1cc(C)nc(N2CCN(CCCCc3c[nH]c4ccc(Cl)cc34)CC2)n1` [Example 13, 5-Chloro-3-(4-(4-(4,6-dimethylpyrimidin-2-yl)piperazin-1-yl)butyl)-1H-indole], in experiment [1] (setting [3]), the Ki came out at 1.8 nM.

For `Cc1cc(C)nc(N2CCN(CCCCc3c[nH]c4ccc(F)cc34)CC2)n1` [Example 14, 3-(4-(4-(4,6-Dimethylpyrimidin-2-yl)piperazin-1-yl)butyl)-5-fluoro-1H-indole], in experiment [1] (setting [3]), the Ki was 1.7 nM. Further, in experiment [2], the IC50 was determined as 12 nM.

With `Cc1cc(C)nc(N2CCN(CCCCc3c[nH]c4ccc(C#N)cc34)CC2)n1` [Example 15, 3-(4-(4-(4,6-Dimethylpyrimidin-2-yl)piperazin-1-yl)butyl)-1H-indole-5-carbonitrile], the Ki in experiment [1] (setting [3]) amounted to 2.9 nM. Besides, the IC50 in experiment [2] was 6.9 nM.

With `COc1ccc2[nH]cc(CCCN3CCN(c4nc(C)cc(C)n4)CC3)c2c1` [Example 17, 3-(3-(4-(4,6-Dimethylpyrimidin-2-yl)piperazin-1-yl)propyl)-5-methoxy-1H-indole], in experiment [1] (setting [3]), the Ki is 0.29 nM.

Turning to `Cc1cc(C)nc(N2CCN(CCCc3c[nH]c4ccc(Cl)cc34)CC2)n1` [Example 18, 5-Chloro-3-(3-(4-(4,6-dimethylpyrimidin-2-yl)piperazin-1-yl)propyl)-1H-indole], the Ki in experiment [1] (setting [3]) was 0.71 nM. This molecule also came in with an IC50 in experiment [2] of 31 nM.

As to `Cc1cc(C)nc(N2CCN(CCCc3c[nH]c4ccc(F)cc34)CC2)n1` [Example 19, 3-(3-(4-(4,6-Dimethylpyrimidin-2-yl)piperazin-1-yl)propyl)-5-fluoro-1H-indole], in experiment [1] (setting [3]), the Ki came to 1.4 nM. The same molecule yielded an IC50 in experiment [2] of 7.9 nM.

As for `Cc1cc(C)nc(N2CCN(CCCc3c[nH]c4ccc(C#N)cc34)CC2)n1` [Example 20, 3-(3-(4-(4,6-Dimethylpyrimidin-2-yl)piperazin-1-yl)propyl)-1H-indole-5-carbonitrile], in experiment [1] (setting [3]), the inhibitory constant (Ki) was determined as 1.1 nM. The IC50 in experiment [2] worked out at 2 nM.

Turning to `COc1cc(C)nc(N2CCN(CCCCc3c[nH]c4ccc(C#N)cc34)CC2)n1` [Example 21, 3-(4-(4-(4-Methoxy-6-methylpyrimidin-2-yl)piperazin-1-yl)butyl)-1H-indole-5-carbonitrile], in experiment [1] (setting [3]), the Ki is 0.65 nM. The molecule also had an IC50 in experiment [2] of 2.6 nM.

`COc1cc(C)nc(N2CCN(CCCc3c[nH]c4ccc(C#N)cc34)CC2)n1` [Example 22, 3-(3-(4-(4-Methoxy-6-methylpyrimidin-2-yl)piperazin-1-yl)propyl)-1H-indole-5-carbonitrile] yielded a Ki in experiment [1] of 1.5 nM. This molecule yielded a concentration for half-maximal inhibition (IC50) in experiment [2] of 2.7 nM.

`N#Cc1ccnc(N2CCN(CCCCc3c[nH]c4ccc(F)cc34)CC2)n1` [Example 23, 2-(4-(4-(5-Fluoro-1H-indol-3-yl)butyl)piperazin-1-yl)pyrimidine-4-carbonitrile]: the Ki in experiment [1] (setting [3]) came out at 18 nM. In experiment [2], this molecule displayed an IC50 of 6.1 nM.

As to `N#Cc1ccc2[nH]cc(CCCCN3CCN(c4nccc(C#N)n4)CC3)c2c1` [Example 24, 3-(4-(4-(4-Cyanopyrimidin-2-yl)piperazin-1-yl)butyl)-1H-indole-5-carbonitrile], the Ki in experiment [1] (setting [3]) came out at 6.2 nM. This molecule registered an IC50 in experiment [2] of 1.9 nM.

Consider `N#Cc1ccnc(N2CCN(CCCc3c[nH]c4ccc(F)cc34)CC2)n1` [Example 25, 2-(4-(3-(5-Fluoro-1H-indol-3-yl)propyl)piperazin-1-yl)pyrimidine-4-carbonitrile], for which the Ki in experiment [1] (setting [3]) was found to be 4 nM. In experiment [2], this molecule showed an IC50 of 4.5 nM.

With `Fc1ccc2[nH]cc(CCCCN3CCN(c4nccc(C(F)(F)F)n4)CC3)c2c1` [Example 31, 5-Fluoro-3-(4-(4-(4-(trifluoromethyl)pyrimidin-2-yl)piperazin-1-yl)butyl)-1H-indole], the Ki in experiment [1] (setting [3]) is 2 nM. Besides, in experiment [2], half-maximal inhibition (IC50) was put at 16 nM.

On to `N#Cc1ccc2[nH]cc(CCCCN3CCN(c4nccc(C(F)(F)F)n4)CC3)c2c1` [Example 32, 3-(4-(4-(4-(Trifluoromethyl)pyrimidin-2-yl)piperazin-1-yl)butyl)-1H-indole-5-carbonitrile], for which the Ki in experiment [1] (setting [3]) amounted to 0.7 nM. The midpoint of inhibition in experiment [2], the IC50, lay at 10 nM.

With `Fc1ccc2[nH]cc(CCCN3CCN(c4nccc(C(F)(F)F)n4)CC3)c2c1` [Example 33, 5-Fluoro-3-(3-(4-(4-(trifluoromethyl)pyrimidin-2-yl)piperazin-1-yl)propyl)-1H-indole], in experiment [1] (setting [3]), the inhibition constant Ki was determined as 1 nM. In experiment [2], this molecule registered an IC50 of 11 nM.

Turning to `N#Cc1ccc2[nH]cc(CCCN3CCN(c4nccc(C(F)(F)F)n4)CC3)c2c1` [Example 34, 3-(3-(4-(4-(Trifluoromethyl)pyrimidin-2-yl)piperazin-1-yl)propyl)-1H-indole-5-carbonitrile], affinity in experiment [1] was put at a Ki of 0.2 nM. This molecule had an IC50 in experiment [2] of 5.9 nM.

As for `N#Cc1ccc2[nH]cc(CCCCN3CCN(c4ncc(F)cn4)CC3)c2c1` [Example 35, 3-(4-(4-(5-Fluoropyrimidin-2-yl)piperazin-1-yl)butyl)-1H-indole-5-carbonitrile], the midpoint of inhibition in experiment [2], the IC50, lay at 4.7 nM. In other words, the single-digit nanomolar range.

In experiment [2], `N#Cc1ccc2[nH]cc(CCCN3CCN(c4ncc(F)cn4)CC3)c2c1` [Example 36, 3-(3-(4-(5-Fluoropyrimidin-2-yl)piperazin-1-yl)propyl)-1H-indole-5-carbonitrile] had an IC50 of 8.2 nM. Against the preceding molecule, the IC50 is about 1.7-fold higher.

For `CCOC(=O)c1sc(N2CCN(CCCCc3c[nH]c4ccc(C#N)cc34)CC2)nc1C` [Example 39, Ethyl 2-(4-(4-(5-cyano-1H-indol-3-yl)butyl)piperazin-1-yl)-4-methylthiazole-5-carboxylate], the Ki in experiment [1] (setting [3]) was 0.79 nM. The IC50 in experiment [2] was 2.9 nM.

In the case of `Cc1nc(N2CCN(CCCCc3c[nH]c4ccc(C#N)cc34)CC2)sc1C(N)=O` [Example 43, 2-(4-(4-(5-Cyano-1H-indol-3-yl)butyl)piperazin-1-yl)-4-methylthiazole-5-carboxamide], the Ki in experiment [1] (setting [3]) came to 12 nM. The IC50 in experiment [2] was determined as 0.85 nM.

As for `Cc1nc(N2CCN(CCCc3c[nH]c4ccc(C#N)cc34)CC2)sc1C#N` [Example 48, 2-(4-(3-(5-Cyano-1H-indol-3-yl)propyl)piperazin-1-yl)-4-methylthiazole-5-carbonitrile], the Ki in experiment [1] (setting [3]) came out at 2.6 nM. The molecule further returned an IC50 in experiment [2] of 7.7 nM.

`CC1CN(c2nccc(C(N)=O)n2)CCN1CCCc1c[nH]c2ccc(C#N)cc12` (stereo not shown) [Example 49, 2-(4-(3-(5-Cyano-1H-indol-3-yl)propyl)-3-methylpiperazin-1-yl)pyrimidine-4-carboxamide] had an IC50 in experiment [2] of 0.28 nM.

In turn, `CC1CN(c2nccc(C(N)=O)n2)CCN1CCCCc1c[nH]c2ccc(C#N)cc12` (stereo not shown) [Example 50, 2-(4-(4-(5-Cyano-1H-indol-3-yl)butyl)-3-methylpiperazin-1-yl)pyrimidine-4-carboxamide] returned an IC50 in experiment [2] of 0.36 nM.
